Data from patent US6555126B2, “Method for treating, controlling, and preventing Diabetes Mellitus” (Diabex, Inc., priority 1999, dated 2003).

Columns and labels:
[1] = tested on: Streptozocin diabetic rats; experiment: Hypoglycemic effect of a single intraperitoneal injection in Streptozocin diabetic (hyperglycemic) rats; assay type: in vivo
Description: (§1) Preparation of Animals: For each experiment, eight (8) overnight fasted normoglycemic and diabetic rats were used. The animals were kept in the experimental animal laboratory for three days with free access to food and water.
Hyperglycemia was induced in the diabetic group of rats by a single intraperitoneal injection of Streptozocin (Upjohn Co, Kalamazoo, Mich., USA). […] body weight-freshly dissolved in citrate phosphate buffer with pH adjusted to 4.5.
Diabetes was confirmed one week after administration of Streptozocin by determining the fasting blood glucose concentration. […] The fasting blood glucose concentration in normal rats is 90-120 mg/dl.
(§2) On the day of the experiment, blood samples were collected at zero time before IP injection of the test substance (Riedel De Hein—Germany), and at intervals as given in Table 1 and 2. Blood samples were drawn from the ear vein in 100 micro millimeter heparinized capillary tubes.
(§3) Blood glucose concentrations were determined according to glucose oxidase method, using glucose enzymatic kits (Biomerioux France).
(§4) The percentage change in glycaemia was calculated.
(§5) For control animals, sterile saline solution was used instead of Linalool.
(§6) Data are expressed as means and standard error of the mean (S.E.M.) statistical analysis were performed using student's t test.

normoglycemic rats = experiment: Hypoglycemic effect of a single intraperitoneal injection in normoglycemic rats; assay type: in vivo
Text: as §1, §2, §3, §4, §5, §6

rats (Rattus rattus) = experiment: LD 50 determination in rats, single subcutaneous dose; assay type: in vivo; conditions: one single dose subcutaneously
Description: 1. LD 50: For this determination, 59 rats (Rattus rattus) of both sexes were used with body weights of 200-240 grams to determine the LD50. The rats were divided into groups consisting of 5-6 rats each.
The rats were fed standard laboratory pellet diet and water ad libitum. Linalool was given as one single dose subcutaneously to rats in gradually increasing doses of 0.2 ml/kg body weight, […], 0.3 ml/kg, 0.35 ml/kg, 0.40 ml/kg, 0.45 ml/kg, 0.50 ml/kg, 0.55 ml/kg, 0.60 ml/kg, 0.65 ml/kg.
LD 50 was determined to be 0.63 ml/kg body weight.

[2] = tested on: diabetic volunteers (Diabetes Mellitus); experiment: Limited clinical study in diabetic volunteers; assay type: in vivo, human; parameters: key to readings (blood glucose) / Fasting Blood Sugar: blood glucose in mg/dl
Description: The study was conducted with strict and continuous monitoring of all vital physical parameters of all volunteers. No clinical or biochemical side effects were observed during or after the test periods. Special attention was made while monitoring Blood Urea, Serum Creatinine, SGPT, Cholesterol, and Triglycerides.
The study involved over 200 diabetic volunteers with different types of Diabetes Mellitus and from different countries, and of both sexes. The breakdown was as follows:
Group One: Two (2) volunteers were new Diabetes Mellitus patients (Virgin cases).
These volunteers had never been treated for the disease and never taken any of the known and standard Diabetes Mellitus medications.
Started using Linalool Enteric Coated Softgels 0.45 ml 3 times daily with meals, on Feb. 22nd, 1999.
Group Two: One (1) volunteer had hyper insulinemia with readings of 400 mg/dl of glucose
The study involved over two hundred diabetic volunteers of both sexes, who had the disease from 3 to 25 years. In various lots, the volunteers were on insulin alone, insulin and hypoglycemic drugs, or hypoglycemic drugs alone. The patients took the product in the form of softgel enteric coated capsules (0.5 ml Linalool and 100 mg vitamin E) one capsule with meals three times a day. The duration of treatment was minimum three months. The product was given along with the classical hypoglycemic treatment (insulin and others). These classical hypoglycemic medications, Insulin—morning and evening, and Daonil (Glibenclamide 5 mg), Glucaphage (metformin 850 mg and other medications, were decreased gradually depending on the monitored improvements of the patient condition.

[3] = Group Two volunteer, hyper insulinemia, June 24, 1999

insulin: short acting soluble insulin preparation, 5 units injected IP as comparator [reference compound]
decrease in blood glucose concentration after one hour ([1]; hyperglycemic rats, 5 units of insulin injected IP): 47.1% | decrease in blood glucose concentration within the first 15 min (normoglycemic rats; insulin injection, called insignificant, rat group not stated): 17.1% | decrease in blood glucose concentration after one hour (normoglycemic rats; normoglycemic rats, 5 units of insulin injected IP): 49%

C=CC(C)(O)CCC=C(C)C (stereo not drawn) [Linalool, 3,7 dimethyl-1,6-octadien-3-ol]
LD 50 (rats (Rattus rattus)): 0.63 ml/kg body weight | Change in blood glucose % at 15 min. ([1]; Table 1, hyperglycemic rats, 0.2 ml/kg single i.p. injection, 15 min): −32.1% | Change in blood glucose % at 1 h. ([1]; Table 1, hyperglycemic rats, 0.2 ml/kg single i.p. injection): −35% | Change in blood glucose % at 1 h. ([1]; Table 2, hyperglycemic rats, 0.2 ml/kg single i.p. injection, mean ± S.E.M.): −36.4 ± 8.6 % | Change in blood glucose % at 4 h. ([1]; Table 2, hyperglycemic rats, 0.2 ml/kg single i.p. injection, 4 h, mean ± S.E.M.): −43.7 ± 6.6 % | Change in blood glucose % at 24 h. ([1]; Table 2, hyperglycemic rats, 0.2 ml/kg single i.p. injection, 24 h, mean ± S.E.M.): −55.8 ± 6.2 % | time of highest hypoglycemic activity after the injection ([1]; hyperglycemic rats): 24 h | decrease in blood glucose concentration within the first 15 min ([1]; hyperglycemic rats treated by Linalool): 32.1% | hypoglycemic activity (in words) ([1]; hyperglycemic rats, i.p. injection): significant hypoglycemic activity | hypoglycemic activity within the first four hours after the administration ([1]; second of two values, hyperglycemic rats (first hour)): 36.4% | Change in blood glucose % at 15 min. (normoglycemic rats; Table 1, normoglycemic rats, 0.2 ml/kg single i.p. injection, 15 min): −36.1% | Change in blood glucose % at 1 h. (normoglycemic rats; Table 1, normoglycemic rats, 0.2 ml/kg single i.p. injection): −35.2% | Change in blood glucose % at 1 h. (normoglycemic rats; Table 2, normoglycemic rats, 0.2 ml/kg single i.p. injection, mean ± S.E.M.): −35.2 ± 6.2 % | Change in blood glucose % at 4 h. (normoglycemic rats; Table 2, normoglycemic rats, 0.2 ml/kg single i.p. injection, 4 h, mean ± S.E.M.): −40.9 ± 8.2 % | Change in blood glucose % at 24 h. (normoglycemic rats; Table 2, normoglycemic rats, 0.2 ml/kg single i.p. injection, 24 h, mean ± S.E.M.): −18.9 ± 4.4 % | hypoglycemic activity within the first four hours after the administration (normoglycemic rats; first of two values, normoglycemic rats (first hour)): 33.2% | time of highest hypoglycemic activity after the intraperitoneal injection (normoglycemic rats; normoglycemic rats): four | decrease in blood glucose concentration within the first 15 min (normoglycemic rats; normoglycemic rats treated by Linalool): 36.1% | hypoglycemic activity (in words) (normoglycemic rats; normoglycemic rats, i.p. injection): significant hypoglycemic activity | readings (blood glucose) ([2]; Group Three volunteer 4, Dec. 17): 175 mg/dL | readings (blood glucose) ([2]; Group Three volunteer 4, Dec. 24): 163 | readings (blood glucose) ([2]; Group Three volunteer 4, Jul. 26, 1999): 105 mg/dL | clinical outcome (physician's judgement) ([2]; Group Three volunteer 4, July 14th, taken off all medication): CURED | HbAlc Readings (lowered to) ([2]; Group Three volunteer 4, Jun. 4, 1999): 6.18% | readings (blood glucose) ([2]; Group Three volunteer 4, Jun. 18): 109 | readings (blood glucose) ([2]; Group Three volunteer 4, Jun. 26): 105 | HbAlc Readings, starting value (lowered from) ([2]; Group Three volunteer 4, date not stated): 9.3% | Fasting Blood Sugar ([2]; Group Three volunteer 5, diabetic over 20 years, Jul. 27, 1998): 233 mg/dL | HbAlc [2, 3]: 7.5% | Insulin, Fasting [2, 3]: 25.6 uU/mL | Serum Glucose, Fasting [2, 3]: 222 mg/dL | Serum Glucose, Fasting ([2]; Group Two volunteer, hyper insulinemia, May 17, 1999, untreated reading 197 mg/dl): 200 mg/dL | HbAlc ([2]; Group Two volunteer, hyper insulinemia, May 17, 1999, untreated reading 8.2%): 8.1% | Insulin, Fasting ([2]; Group Two volunteer, hyper insulinemia, May 17, 1999, untreated reading 42 uU/mL): 18.40 uU/mL | reduction of fasting insulin level ([2]; Group Two volunteer, from 42 uU/mL to 25.6): ~50% | Fasting Blood Sugar ([2]; volunteer 5, Aug. 17, 1998): 190 | HbAlc ([2]; volunteer 5, Aug. 17, 1998): 10.1% | Fasting Blood Sugar ([2]; volunteer 5, Jan. 27, 1999): 167 | HbAlc ([2]; volunteer 5, Jan. 27, 1999): 7.0% | HbAlc ([2]; volunteer 5, Jul. 27, 1998): 11.2% | Fasting Blood Sugar ([2]; volunteer 5, Nov. 1, 1998): 114 | Fasting Blood Sugar ([2]; volunteer 5, Nov. 12, 1998): 135 | HbAlc ([2]; volunteer 5, Nov. 12, 1998): 7.5% | Fasting Blood Sugar ([2]; volunteer 5, Sep. 17, 1998): 166 | HbAlc ([2]; volunteer 5, Sep. 17, 1998): 9.7%
